Measurements: the OligoGym collection
HELM strings list units from the 5' end as sugar, base in round brackets, then linkage (d deoxyribose, r ribose, m 2'-O-methyl, p phosphodiester). Strings are as the collection lists them; they lack the last nucleoside at the 3' end of the tested compound. [moe] = 2'-O-(2-methoxyethyl) (MOE); [sp] = phosphorothioate linkage; [m5C] = 5-methylcytosine

What follows are substances tested against C9ORF72 (assay: mouse, dose not given). Conditions: ASO.
Work on “RNA1{[moe](A)[sp].[moe](A)[sp].[moe](T)[sp].[moe]([m5C])[sp].[moe](T)[sp].d(T)[sp].d(T)[sp].d(A)[sp].d(T)[sp].d([m5C])[sp].d(A)[sp].d(G)[sp].d(G)[sp].d(T)[sp].d([m5C])[sp].[moe](T)[sp].[moe](T)[sp].[moe](T)[sp].[moe](T)}$$$$ (last 3' nucleoside missing)” yielded a 3 h FOB score of 6.5 score 0-7.
“RNA1{[moe](A)[sp].[moe](G)p.[moe](G)p.[moe]([m5C])[sp].d(T)[sp].d(G)[sp].d([m5C])[sp].d(G)[sp].d(G)[sp].d(T)[sp].d(T)[sp].d(G)[sp].[moe](T)p.[moe](T)p.[moe](T)p.[moe]([m5C])[sp].[moe]([m5C])}$$$$ (last 3' nucleoside missing)” was tested, and the 3 h FOB score was 7 score 0-7.
“RNA1{[moe](A)[sp].[moe](G)p.[moe](G)p.[moe]([m5C])p.[moe](T)p.[moe](G)[sp].d([m5C])[sp].d(G)[sp].d(G)[sp].d(T)[sp].d(T)[sp].d(G)[sp].d(T)[sp].d(T)[sp].[moe](T)p.[moe]([m5C])[sp].[moe]([m5C])}$$$$ (last 3' nucleoside missing)” gave a 3 h FOB score of 5.25 score 0-7.
Substance “RNA1{[moe](A)[sp].[moe](G)p.[moe](G)p.[moe]([m5C])p.[moe](T)p.[moe](G)p.d([m5C])[sp].d(G)[sp].d(G)[sp].d(T)[sp].d(T)[sp].d(G)[sp].d(T)[sp].d(T)[sp].d(T)[sp].[moe]([m5C])p.[moe]([m5C])[sp].[moe]([m5C])}$$$$ (last 3' nucleoside missing)” has a 3 h FOB score of 6 score 0-7.
For “RNA1{[moe](A)[sp].[moe](G)p.[moe](G)p.[moe]([m5C])p.[moe](T)p.[moe](G)p.d([m5C])[sp].d(G)[sp].d(G)[sp].d(T)[sp].d(T)[sp].d(G)[sp].d(T)[sp].d(T)[sp].d(T)[sp].d([m5C])[sp].[moe]([m5C])p.[moe]([m5C])[sp].[moe](T)}$$$$ (last 3' nucleoside missing)”, the 3 h FOB score was 4 score 0-7.
“RNA1{[moe](A)[sp].[moe](G)p.[moe](G)p.[moe]([m5C])p.[moe](T)p.d(G)[sp].d([m5C])[sp].d(G)[sp].d(G)[sp].d(T)[sp].d(T)[sp].d(G)[sp].d(T)[sp].d(T)[sp].[moe](T)p.[moe]([m5C])p.[moe]([m5C])[sp].[moe]([m5C])}$$$$ (last 3' nucleoside missing)” showed a 3 h FOB score of 6.25 score 0-7.
In the case of “RNA1{[moe](A)[sp].[moe](G)p.[moe](G)p.[moe]([m5C])p.d(T)[sp].d(G)[sp].d([m5C])[sp].d(G)[sp].d(G)[sp].d(T)[sp].d(T)[sp].d(G)[sp].d(T)[sp].[moe](T)p.[moe](T)p.[moe]([m5C])p.[moe]([m5C])[sp].[moe]([m5C])}$$$$ (last 3' nucleoside missing)”, the 3 h FOB score is reported as 6.5 score 0-7.
With “RNA1{[moe](A)[sp].[moe](G)p.[moe](G)p.[moe]([m5C])p.d(T)[sp].d(G)[sp].d([m5C])[sp].d(G)[sp].d(G)[sp].d(T)[sp].d(T)[sp].d(G)[sp].d(T)[sp].d(T)[sp].[moe](T)p.[moe]([m5C])p.[moe]([m5C])p.[moe]([m5C])[sp].[moe](T)}$$$$ (last 3' nucleoside missing)” the 3 h FOB score was 6.25 score 0-7.
Work on “RNA1{[moe](G)[sp].[moe](G)[sp].[moe](G)[sp].[moe](A)[sp].[moe]([m5C])[sp].d(A)[sp].d([m5C])[sp].d(T)[sp].d(A)[sp].d([m5C])[sp].d(A)[sp].d(A)[sp].d(G)[sp].d(G)[sp].d(T)[sp].[moe](A)[sp].[moe](G)[sp].[moe](T)[sp].[moe](A)}$$$$ (last 3' nucleoside missing)” yielded a 3 h FOB score of 5.67 score 0-7.
Substance “RNA1{[moe](G)[sp].[moe](G)[sp].[moe](T)[sp].[moe](A)[sp].[moe](A)[sp].d([m5C])[sp].d(T)[sp].d(T)[sp].d([m5C])[sp].d(A)[sp].d(A)[sp].d(A)[sp].d([m5C])[sp].d(T)[sp].d([m5C])[sp].[moe](T)[sp].[moe](T)[sp].[moe](G)[sp].[moe](G)}$$$$ (last 3' nucleoside missing)” has a 3 h FOB score of 7 score 0-7.
“RNA1{[moe](G)[sp].[moe](G)p.[moe](T)p.[moe](T)[sp].d(A)[sp].d(A)[sp].d(T)[sp].d([m5C])[sp].d(T)[sp].d(T)[sp].d(T)[sp].d(A)[sp].[moe](T)p.[moe]([m5C])p.[moe](A)p.[moe](G)[sp].[moe](G)}$$$$ (last 3' nucleoside missing)” showed a 3 h FOB score of 1 score 0-7.
“RNA1{[moe](G)[sp].[moe](G)p.[moe](T)p.[moe](T)p.[moe](A)p.[moe](A)[sp].d(T)[sp].d([m5C])[sp].d(T)[sp].d(T)[sp].d(T)[sp].d(A)[sp].d(T)[sp].d([m5C])[sp].[moe](A)p.[moe](G)[sp].[moe](G)}$$$$ (last 3' nucleoside missing)” showed a 3 h FOB score of 1.25 score 0-7.
“RNA1{[moe](G)[sp].[moe](G)p.[moe](T)p.[moe](T)p.[moe](A)p.[moe](A)p.[moe](T)p.d([m5C])[sp].d(T)[sp].d(T)[sp].d(T)[sp].d(A)[sp].d(T)[sp].d([m5C])[sp].d(A)[sp].d(G)[sp].d(G)[sp].[moe](T)[sp].[moe]([m5C])}$$$$ (last 3' nucleoside missing)” was tested, and the 3 h FOB score was 5.75 score 0-7.
Work on “RNA1{[moe](G)[sp].[moe](G)p.[moe](T)p.[moe](T)p.[moe](A)p.[moe](A)p.d(T)[sp].d([m5C])[sp].d(T)[sp].d(T)[sp].d(T)[sp].d(A)[sp].d(T)[sp].d([m5C])[sp].d(A)[sp].d(G)[sp].[moe](G)p.[moe](T)[sp].[moe]([m5C])}$$$$ (last 3' nucleoside missing)” yielded a 3 h FOB score of 1.5 score 0-7.
In the case of “RNA1{[moe](G)[sp].[moe](G)p.[moe](T)p.[moe](T)p.d(A)[sp].d(A)[sp].d(T)[sp].d([m5C])[sp].d(T)[sp].d(T)[sp].d(T)[sp].d(A)[sp].d(T)[sp].d([m5C])[sp].[moe](A)p.[moe](G)p.[moe](G)p.[moe](T)[sp].[moe]([m5C])}$$$$ (last 3' nucleoside missing)”, the 3 h FOB score is reported as 0 score 0-7.
Substance “RNA1{[moe](G)[sp].[moe](G)p.[moe](T)p.d(T)[sp].d(A)[sp].d(A)[sp].d(T)[sp].d([m5C])[sp].d(T)[sp].d(T)[sp].d(T)[sp].d(A)[sp].d(T)[sp].[moe]([m5C])p.[moe](A)p.[moe](G)p.[moe](G)p.[moe](T)[sp].[moe]([m5C])}$$$$ (last 3' nucleoside missing)” has a 3 h FOB score of 0 score 0-7.
“RNA1{[moe](G)[sp].[moe](G)p.[moe]([m5C])p.[moe](T)[sp].d(G)[sp].d([m5C])[sp].d(G)[sp].d(G)[sp].d(T)[sp].d(T)[sp].d(G)[sp].d(T)[sp].[moe](T)p.[moe](T)p.[moe]([m5C])p.[moe]([m5C])[sp].[moe]([m5C])}$$$$ (last 3' nucleoside missing)” showed a 3 h FOB score of 6 score 0-7.
“RNA1{[moe](G)[sp].[moe](G)p.[moe]([m5C])p.[moe](T)p.[moe](G)p.[moe]([m5C])[sp].d(G)[sp].d(G)[sp].d(T)[sp].d(T)[sp].d(G)[sp].d(T)[sp].d(T)[sp].d(T)[sp].[moe]([m5C])p.[moe]([m5C])[sp].[moe]([m5C])}$$$$ (last 3' nucleoside missing)” was tested, and the 3 h FOB score was 2.5 score 0-7.
“RNA1{[moe](G)[sp].[moe](G)p.[moe]([m5C])p.[moe](T)p.[moe](G)p.[moe]([m5C])p.d(G)[sp].d(G)[sp].d(T)[sp].d(T)[sp].d(G)[sp].d(T)[sp].d(T)[sp].d(T)[sp].d([m5C])[sp].[moe]([m5C])p.[moe]([m5C])[sp].[moe](T)}$$$$ (last 3' nucleoside missing)” showed a 3 h FOB score of 5.25 score 0-7.
“RNA1{[moe](G)[sp].[moe](G)p.[moe]([m5C])p.[moe](T)p.[moe](G)p.d([m5C])[sp].d(G)[sp].d(G)[sp].d(T)[sp].d(T)[sp].d(G)[sp].d(T)[sp].d(T)[sp].d(T)[sp].[moe]([m5C])p.[moe]([m5C])p.[moe]([m5C])[sp].[moe](T)}$$$$ (last 3' nucleoside missing)” was tested, and the 3 h FOB score was 5.5 score 0-7.
In the case of “RNA1{[moe](G)[sp].[moe](G)p.[moe]([m5C])p.[moe](T)p.d(G)[sp].d([m5C])[sp].d(G)[sp].d(G)[sp].d(T)[sp].d(T)[sp].d(G)[sp].d(T)[sp].d(T)[sp].[moe](T)p.[moe]([m5C])p.[moe]([m5C])p.[moe]([m5C])[sp].[moe](T)}$$$$ (last 3' nucleoside missing)”, the 3 h FOB score is reported as 6 score 0-7.
Work on “RNA1{[moe](G)[sp].[moe](G)p.[moe]([m5C])p.[moe]([m5C])[sp].d([m5C])[sp].d([m5C])[sp].d(T)[sp].d(A)[sp].d(G)[sp].d([m5C])[sp].d(G)[sp].d([m5C])[sp].[moe](G)p.[moe]([m5C])p.[moe](G)p.[moe](A)[sp].[moe]([m5C])}$$$$ (last 3' nucleoside missing)” yielded a 3 h FOB score of 2.5 score 0-7.
Work on “RNA1{[moe](G)[sp].[moe](G)p.[moe]([m5C])p.[moe]([m5C])p.[moe]([m5C])p.[moe]([m5C])[sp].d(T)[sp].d(A)[sp].d(G)[sp].d([m5C])[sp].d(G)[sp].d([m5C])[sp].d(G)[sp].d([m5C])[sp].[moe](G)p.[moe](A)[sp].[moe]([m5C])}$$$$ (last 3' nucleoside missing)” yielded a 3 h FOB score of 3.25 score 0-7.
“RNA1{[moe](G)[sp].[moe](G)p.[moe]([m5C])p.[moe]([m5C])p.[moe]([m5C])p.[moe]([m5C])p.d(T)[sp].d(A)[sp].d(G)[sp].d([m5C])[sp].d(G)[sp].d([m5C])[sp].d(G)[sp].d([m5C])[sp].d(G)[sp].d(A)[sp].[moe]([m5C])p.[moe](T)[sp].[moe]([m5C])}$$$$ (last 3' nucleoside missing)” gave a 3 h FOB score of 1.25 score 0-7.
In the case of “RNA1{[moe](G)[sp].[moe](G)p.[moe]([m5C])p.[moe]([m5C])p.d([m5C])[sp].d([m5C])[sp].d(T)[sp].d(A)[sp].d(G)[sp].d([m5C])[sp].d(G)[sp].d([m5C])[sp].d(G)[sp].d([m5C])[sp].[moe](G)p.[moe](A)p.[moe]([m5C])p.[moe](T)[sp].[moe]([m5C])}$$$$ (last 3' nucleoside missing)”, the 3 h FOB score is reported as 1.5 score 0-7.
“RNA1{[moe](G)[sp].[moe](T)p.[moe](T)p.[moe](A)[sp].d(A)[sp].d(T)[sp].d([m5C])[sp].d(T)[sp].d(T)[sp].d(T)[sp].d(A)[sp].d(T)[sp].[moe]([m5C])p.[moe](A)p.[moe](G)p.[moe](G)[sp].[moe](T)}$$$$ (last 3' nucleoside missing)” showed a 3 h FOB score of 1 score 0-7.
With “RNA1{[moe](G)[sp].[moe](T)p.[moe](T)p.[moe](A)p.[moe](A)p.[moe](T)[sp].d([m5C])[sp].d(T)[sp].d(T)[sp].d(T)[sp].d(A)[sp].d(T)[sp].d([m5C])[sp].d(A)[sp].[moe](G)p.[moe](G)[sp].[moe](T)}$$$$ (last 3' nucleoside missing)” the 3 h FOB score was 3 score 0-7.
